Test results: patent US20220291217A1, “GASTRIC CANCER MARKER AND EXAMINATION METHOD USING SAME” (JAPANESE FOUNDATION FOR CANCER RESEARCH, priority 2019, published 2022)

System: SNU-1 cells
Assay: Staurosporine-induced apoptosis, Annexin V/7AAD flow cytometry
Format: cell-based, human
Details: staurosporine 1.0 μM
Description: Staurosporine (STS), a kinase inhibitor, was added to the above cells at 1.0 μM to induce apoptosis (FIG. 4b). Apoptosis was detected with Annexin V, 7AAD kit (BD Bioscience), and analyzed by flow cytometry, BD FACSCalibur (BD Bioscience).

## CN[C@@H]1C[C@H]2O[C@@](C)([C@@H]1OC)n1c3ccccc3c3c4c(c5c6ccccc6n2c5c31)C(=O)NC4 [staurosporine, Staurosporine]
SNU-1 cells that do not express CA1, within 3 hours
  cells in which apoptosis is induced: 19.3%
SNU-1 cells with forcedly expressed 3'-FLAG-tagged CA1
  cells in which apoptosis was induced: 6.1%
